# Reference: patent publication US20150004110A1, “NOVEL ANTI-AGING AND DEPIGMENTING COSMETIC COMPOSITIONS” (DIVERCHIM, priority 2011, published 2015)
# Assays:
# [1] = tested on: collagen I; experiment: Staining and immunolabelling of skin explant sections: collagen I; assay type: cell-based, human; settings: treated skin explant sections
# Experimental: (§1) 1. Preparation of the explants • During abdominoplasty of a person, 45 skin explants were prepared. The explants were put in BEM medium (BIO-EC's Explants Medium) for survival at 37° C. in humid atmosphere, enriched with 5% CO2.
# (§2) 2. Application of the products • The solutions are prepared in DMSO from pure products, in order to obtain final concentrations of […] by incorporating an identical volume of 10 μl in each well and for each treatment. The treatment was carried out in the survival medium on days 0, 1, 2, 5 and 7.
# (§3) 3. Taking samples • On D0, the 3 explants of batch TO were taken and each explant was cut in two. One part was fixed in buffered formol for observation of the general morphology. The other was frozen and stored at −80° C. • On D5 and D9, 3 explants from each batch were taken and treated in the same way.
# (§4) 4. Histological treatment • After fixation for 48 hours in buffered formol, the samples were dehydrated and embedded in paraffin using a Leica 1020 automatic dehydrator. They were embedded according to procedure MO-H-153 using a Leica EG 1160 coating station. Sections of 5 μm were prepared according to procedure MO-H-173 using a Minot-type microtome, Leica RM 2125 and mounted on Superfrost® histological glass slides.
# (§5) 6. Staining and immunolabelling
# (§6) Immunolabelling will be carried out on sections with the appropriate antibody. […]
# [2] = tested on: collagen IV; experiment: Staining and immunolabelling of skin explant sections: collagen IV; assay type: cell-based, human; settings: treated skin explant sections
# Experimental: as §1, §2, §3, §4, §5, §6
# [3] = tested on: skin explants (abdominoplasty); experiment: Histological assessment of the general morphology of skin explants maintained in survival; assay type: cell-based, human; settings: 2 μg/mL in DMSO, after 9 days of survival
# Experimental: as §1, §2, §3
# 4. […]
# 5. Microscopic observations • The microscopic observations were carried out by light microscopy and fluorescence microscopy, using a Orthoplan-type Leica microscope, with ×25 objective. The images were recorded with a Sony DXC 390P tri CCD camera and stored using the Leica IM1000 data archiving software. • The general morphology was observed on sections in paraffin after staining with Masson trichrome, Goldner variant according to procedure MO-H-157. […]
# [4] = tested on: HSPB1, heat shock protein beta-1; experiment: RT-qPCR expression of HSPB1 in keratinocytes; assay type: cell-based, human; settings: 10 μM
# Experimental: The expression of the specific markers was evaluated by RT-qPCR (reverse transcription quantitative polymerase chain reaction) on messenger RNAs extracted from the cell lawns from each treatment. The transcriptomic profile contains 64 genes selected for their importance in keratinocyte differentiation. The PCR reactions (polymerase chain reactions) were carried out by quantitative PCR with the “Light Cycler” system (Roche Molecular System Inc.) according to the procedures recommended by the supplier. Normal human epidermal keratinocytes were incubated in the presence of compound 1 or a reference with calcium chloride. The expression of the specific markers was evaluated by RT-qPCR on the messenger RNAs extracted from the cell lawns from each treatment.
# [5] = molecular target: T1, PPARγ (h) (Homo sapiens, UniProt P37231); experiment: PPARγ competitive radioligand binding assay (Cerep)
# T1 construct: Cerep (contract laboratory that ran the assay)
# T1 sequence (P37231 1-505): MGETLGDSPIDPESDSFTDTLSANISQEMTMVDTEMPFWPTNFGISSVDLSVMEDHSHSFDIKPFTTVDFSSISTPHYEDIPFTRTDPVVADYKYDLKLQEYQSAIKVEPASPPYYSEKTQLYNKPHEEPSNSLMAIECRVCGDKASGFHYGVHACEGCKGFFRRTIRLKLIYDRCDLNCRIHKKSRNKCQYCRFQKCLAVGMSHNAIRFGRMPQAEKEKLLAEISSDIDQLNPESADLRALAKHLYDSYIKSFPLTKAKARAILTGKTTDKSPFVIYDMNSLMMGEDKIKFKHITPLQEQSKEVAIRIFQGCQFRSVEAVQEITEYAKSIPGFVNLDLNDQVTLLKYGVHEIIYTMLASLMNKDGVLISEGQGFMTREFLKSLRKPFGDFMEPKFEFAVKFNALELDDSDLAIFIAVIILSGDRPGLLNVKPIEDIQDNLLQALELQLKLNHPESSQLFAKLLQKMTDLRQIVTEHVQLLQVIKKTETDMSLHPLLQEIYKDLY
# Experimental: The affinity of compound 1 for the PPAR receptors (α and γ) was tested by in vitro binding assays (tests carried out by the company Cerep).
# This is a nuclear receptor competitive binding assay, between a radiolabelled ligand and the test molecule (here compound 1).
# The principle of the technique consists of measuring the displacement of the radioactive ligand bound to the receptor by the test molecule. • Material and Methods
# The specific binding of the ligand is defined by the difference between total binding and non-specific binding determined in the presence of an excess of unlabelled ligand.
# The results are expressed as: • percentage of control specific binding ((measured specific binding/control specific binding)×100)) • percentage of inhibition of control specific binding ((100−(measured specific binding/control specific binding)) obtained in the presence of compound 1.
# The values of IC50 (concentration at which the maximum control specific binding is inhibited by 50%), and the Hill coefficient (nH) are determined by non-linear regression analysis of the curves of competition with a mean replicated value using adjustment of Hill's equation
# The inhibition constant (Ki) was calculated using the Cheng-Prusoff equation
compound,measurement,setting,value
"Oc1ccccc1CCOc1ccc(F)cc1 [Compound 1, 2-[2-(4-fluoro-phenoxy)-ethyl]-phenol]",Collagen I in the papillary dermis,[1],clear overexpression
same,Collagen IV along the dermal-epidermal junction,[2],clear overexpression
same,General morphology: epidermal structure and papillary dermis,[3],very clear epidermal and dermal restructuring activity
same,Expression of the stress protein HSPB1,[4],inhibition of expression
same,Interpretation of the 49% inhibition of PPARγ specific binding,[5]; 10^−5 M,slight to moderate effect
same,inhibition at 10 µM,"[5]; 10^−5 M, agonist radioligand, read-out: % Inhibition of control specific binding",49%
same,inhibition at 1 µM,"[5]; 10^−6 M, agonist radioligand, read-out: % Inhibition of control specific binding",1%
same,inhibition at 0.1 µM,"[5]; 10^−7 M, agonist radioligand, read-out: % Inhibition of control specific binding",0%
same,"Activity with respect to the PPARγ receptor (binding, conclusion in words)",[5]; 10^−7 to 10^−5 M,no activity
